A value given as a limit tells only on which side of the number the result lay.

Assay [1] has as its system K-562 (human erythroleukemia). The assay is described as follows: Calcein AM cytotoxicity assay, K-562. The class given is cell-based. The text has this: (§1) Because toxic compounds negatively influence metabolic processes in cells, many standard cytotoxicity assays are based on measurement of metabolisation rate of various artificial substrates. Resulting product is then quantified e.g. by means of spectrometry. The assays can be easily modified for use in 96-well plates. For evaluation of cytotoxic effect of the novel substituted 9-substituted cytokinin derivatives of this invention, a microtiter assay based on quantification of metabolisation of Calcein AM was used. The assay is widely used in drug screening programs and in chemosensitivity testing. In the living cells, Calcein AM is enzymatically hydrolysed and accumulation of resulting calcein is manifested by green fluorescence.
(§2) Normal human fibroblasts BJ were used as a control for routine screening of the compounds. The cells were kept in Nunc/Corning 80 cm^2 plastic bottles and grown in cell culture medium (DMEM containing 5 g/l glucose, 2 mM glutamine, 100 U/ml penicillin, 100 μg/ml streptomycine, 10% fetal bovine serum and sodium hydrogencarbonate), the compounds were prepared according to the procedure of the present invention.
(§3) The cell suspensions were prepared and diluted according to the particular cell type and the expected target cell density (2.500-30.000 cells per well based on cell growth characteristics) and pippetted (80 μl) into 96-well plates. […] Tested compound was added in total volume of 20 μl of water at time zero. Usually, test compound was evaluated at six 3-fold dilutions. […] All drug concentrations were tested in triplicates. […] At the end of incubation period Calcein AM in PBS was added into final concentration of 1 μg/ml. After another 1 hour of incubation fluorescence (FD) was measured with the Labsystem FIA Reader Fluoroscan Ascent (UK). Growth inhibition (GI) was estimated using the following equitation: GI=(mean FDdrug exposed wells−mean FDblank)/(mean FDcontrol wells−mean FDblank)×100%.

In assay [2] the test system is MCF-7 (breast carcinoma). The assay is described as follows: Calcein AM cytotoxicity assay, MCF7. The class given is cell-based. Conditions: MCF7, 72 hours.
From the text: as §1, §2, §3

Assay [3] concerns G-361 (human malignant melanoma). The assay can be described thus: Calcein AM cytotoxicity assay, G-361. The class given is cell-based. The conditions noted are these: G-361, 72 hours.
From the text: as §1, §2, §3

Assay [4] has as its system CEM (T-lymphoblastoid leukemia). The assay can be described thus: Calcein AM cytotoxicity assay, CEM. In kind it is cell-based. The conditions noted are these: 72 hours.
From the text: as §1, §2, §3

Assay [5] has as its system HL-60 (promyelocytic leukemia). The assay is described as follows: Calcein AM cytotoxicity assay, HL60. In kind it is cell-based, human.
From the text: as §1, §2, §3

Assay [6] concerns Human lymphocytes. The assay is described as follows: Immunosuppressive activity, 3H-thymidine incorporation in concanavalin A activated lymphocytes. In kind it is cell-based. The conditions noted are these: 72 hours, [3H]-TdR. The text has this: One of the most important parameters of specific cellular immunity is the proliferative response of lymphocytes to antigens or polyclonal mitogens. The majority of normal mammalian peripheral lymphocytes comprise resting cells. Antigens or nonspecific polyclonal mitogens have the capacity to activate lymphoid cells and this is accompanied by dramatic changes of intracellular metabolism (mitochondrial activity, protein synthesis, nucleic acids synthesis, formation of blastic cells and cellular proliferation). […] Variety of in vitro assays was developed to measure proliferative response of lymphocytes. The most commonly used is ^3H-thymidine incorporation method.
During cell proliferation, DNA has to be replicated before the cell is divided into two daughter cells. This close association between cell doublings and DNA synthesis is very attractive for assessing cell proliferation. If labelled DNA precursors are added to the cell culture, cells that are about to divide incorporate the labelled nucleotide into their DNA. Traditionally, those assays usually involve the use of radiolabelled nucleosides, particularly tritiated thymidine ([^3H]-TdR). The amount of [^3H]-TdR incorporated into the cellular DNA is quantified by liquid scintillation counting. Human heparinized peripheral blood was obtained from healthy volunteers by cubital vein punction. The blood was diluted in PBS (1:3) and mononuclear cells were separated by centrifugation in Ficoll-Hypaque density gradient (Pharmacia, 1.077 g/ml) at 2200 rpm for 30 minutes. Following centrifugation, lymphocytes were washed in PBS and resuspended in cell culture medium (RMPI 1640, 2 mM glutamine, 100 U/ml penicillin, 100 μg/ml streptomycin, 10% fetal calf serum and sodium bicarbonate).
The cells were diluted at target density of 1.100.000 cells/ml and were added by pipette (180 μl) into 96-well microtiter plates. Four-fold dilutions of the intended test concentration were added at time zero in 20 μl aliquots to the microtiter plate wells. Usually, test compound was evaluated at six 4-fold dilutions. In routine testing, the highest well concentration was 266.7 μM. All drug concentrations were examined in duplicates. All wells with exception of unstimulated controls were activated with 50 of concanavalin A (25 μg/ml). Incubations of cells with test compounds lasted for 72 hours at 37° C., in 5% CO2 atmosphere and 100% humidity. At the end of incubation period, the cells were assayed by using the [^3H]-TdR:
Cell cultures were incubated with 0.5 μCi (20 μl of stock solution 500 μCi/ml per well for 6 hours at 37° C. and 5% CO2. The automated cell harvester was used to lyse cells in water and adsorb the DNA onto glass-fiber filters in the format of microtiter plate. The DNA incorporated [^3H]-TdR was retained on the filter while unincorporated material passes through. The filters were dried at room temperature overnight, sealed into a sample bag with 10-12 ml of scintillant. The amount of [^3H]-TdR present in each filter (in cpm) was determined by scintillation counting in a Betaplate liquid scintillation counter. The effective dose of immunosuppressant (ED) was calculated using the following equation: ED=(CCPMdrug exposed well/mean CCPMcontrol wells)×100%. The ED50 value, the drug concentration inhibiting proliferation of 50% of lymphocytes, was calculated from the obtained dose response curves.

Assay [7] deals with HOS (human osteogenic sarcoma). The assay is described as follows: Calcein AM cytotoxicity assay, HOS. The conditions noted are these: 72 hours. In kind it is cell-based.
From the text: as §1, §2, §3

Assay [8] has as its system Normal human fibroblasts BJ. The assay can be described thus: Calcein AM cytotoxicity assay, BJ fibroblasts. The class given is cell-based. The conditions noted are these: 72 hours.
From the text: as §1, §2, §3

In the case of `O=P(O)(O)OC[C@H]1O[C@@H](n2cnc3c(NCc4cccc(F)c4)ncnc32)[C@H](O)[C@@H]1O` [Compound 2, 6-(3-fluorobenzylamino)purine riboside-5′-monophosphate], the GI50 in assay [1] (K-562, 72 hours) was 7.2 µM; in assay [2] it was 14.7 µM; in assay [3] it was 14.6 µM; in assay [4], 3.2 µM; in assay [5] (HL60, 72 hours), 0.83 µM. Besides, the “Human lymphocytes ED50” value in assay [6] worked out at 11.5 µM.
Take `O=P(O)(O)OC[C@H]1O[C@@H](n2cnc3c(NCc4ccc(F)cc4)ncnc32)[C@H](O)[C@@H]1O` [Compound 3, 6-(4-fluorobenzylamino)purine riboside-5′-monophosphate]: the 50% growth inhibitory concentration (GI50) in assay [7] was 12.1 µM; in assay [1] (K-562, 72 hours), 6.1 µM; in assay [2] it was 12.3 µM; in assay [4] it was 1.2 µM; in assay [5] (HL60, 72 hours) it was 0.69 µM. The “Human lymphocytes ED50” value in assay [6] was found to be 13.4 µM.
As for `Cc1ccccc1CNc1ncnc2c1ncn2[C@@H]1O[C@H](COP(=O)(O)O)[C@@H](O)[C@H]1O` [Compound 12, 6-(2-methylbenzylamino)purine riboside-5′-monophosphate], the GI50 in assay [2] is 144 µM; in assay [4], 11.4 µM; in assay [5] (HL60, 72 hours), 3.1 µM. For the same compound, in assay [6], the “Human lymphocytes ED50” value stood at 7.3 µM.
With `Cc1cccc(CNc2ncnc3c2ncn3[C@@H]2O[C@H](COP(=O)(O)O)[C@@H](O)[C@H]2O)c1` [Compound 13, 6-(3-methylbenzylamino)purine riboside-5′-monophosphate], the GI50 is 160 µM in assay [1] (K-562, 72 hours); 71.7 µM in assay [2]; 11.6 µM in assay [4]; 6.6 µM in assay [5] (HL60, 72 hours). In addition, the “Human lymphocytes ED50” value in assay [6] came to 7.5 µM.
Regarding `COc1ccccc1CNc1ncnc2c1ncn2[C@@H]1O[C@H](COP(=O)(O)O)[C@@H](O)[C@H]1O` [Compound 15, 6-(2-methoxybenzylamino)purine riboside-5′-monophosphate], the GI50 was 20.1 µM in assay [7]; 8.4 µM in assay [1] (K-562, 72 hours); 113 µM in assay [2]; 2.4 µM in assay [4]; 2.1 µM in assay [5] (HL60, 72 hours).
Turning to `O=P(O)(O)OC[C@H]1O[C@@H](n2cnc3c(NCc4cccc(O)c4)ncnc32)[C@H](O)[C@@H]1O` [Compound 22, 6-(3-hydroxybenzylamino)purine riboside-5′-monophosphate], the GI50 in assay [1] (K-562, 72 hours) is 92.4 µM; in assay [2], 108 µM; in assay [4] it was 49.8 µM; in assay [5] (HL60, 72 hours), 19 µM. For the same compound, in assay [6], the “Human lymphocytes ED50” value was 12.8 µM.
For the compound `O=P(O)(O)OC[C@H]1O[C@@H](n2cnc3c(NCc4ccc(Cl)c(Cl)c4)ncnc32)[C@H](O)[C@@H]1O` [Compound 25, 6-(3,4-dichlorobenzylamino)purine riboside-5′-monophosphate], the GI50 in assay [7] was 112 µM; in assay [1] (K-562, 72 hours) it was 6.1 µM; in assay [2] it was 82.8 µM; in assay [8] it was 132 µM; in assay [4], 3.1 µM; in assay [5] (HL60, 72 hours) it was 1 µM.
Turning to `O=P(O)(O)OC[C@H]1O[C@@H](n2cnc3c(NCc4ccc(F)c(Cl)c4)ncnc32)[C@H](O)[C@@H]1O` [Compound 41, 6-(3-chloro-4-fluorobenzylamino)purine riboside-5′-monophosphate], the GI50 in assay [1] (K-562, 72 hours) was 4.3 µM; in assay [2] it was 99.1 µM; in assay [4] it was 1.4 µM; in assay [5] (HL60, 72 hours) it was 3.1 µM.
For the compound `Nc1ncnc2c1ncn2[C@@H]1O[C@H](COP(=O)(O)O)[C@@H](O)[C@H]1O` [adenosine-5′-monophosphate, reference compound], the GI50 in assay [7] (Homo sapiens) was greater than 167 µM; in assay [1] (Homo sapiens, K562, K-562, 72 hours) it was greater than 167 µM; in assay [2] (Homo sapiens) it was greater than 167 µM; in assay [8] (Homo sapiens, Fibroblast), greater than 167 µM; in assay [3] (Homo sapiens) it was greater than 167 µM; in assay [4], greater than 167 µM. Moreover, in assay [5] (Homo sapiens, HL-60, HL60, 72 hours), the GI50 is greater than 167 µM.
“zeatin riboside-5′-monophosphate [reference compound]”: the GI50 was greater than 167 µM in assay [7]; greater than 167 µM in assay [1] (K-562, 72 hours); greater than 167 µM in assay [2]; greater than 167 µM in assay [8]; greater than 167 µM in assay [3]; greater than 167 µM in assay [4]. For the same compound, the GI50 in assay [5] (HL60, 72 hours) is greater than 167 µM.

The values are drawn from patent publication US20130040908A1, “SUBSTITUTION DERIVATIVES OF N6-BENZYLADENOSINE-5' -MONOPHOSPHATE, METHODS OF PREPARATION THEREOF, USE THEREOF AS MEDICAMENTS, AND THERAPEUTIC PREPARATIONS CONTAINING THESE COMPOUNDS” (BIOAPEX, S.R.O., priority 2010, published 2013).
